Test results published in ChEMBL document CHEMBL5518185, “Design, synthesis and antitumor activity of 4-arylamine substituted pyrimidine derivatives as noncovalent EGFR inhibitors overcoming C797S mutation” (Eur J Med Chem, 2024).
The source made the active and inactive calls. No cut-off for these calls is given here.

Tests used:
[1] = target: Proto-oncogene tyrosine-protein kinase ROS (Homo sapiens) (UniProt P08922); assay: Inhibition of ROS (unknown origin) by HTRF assay relative to control; settings: concentration not given here
[2] = Cytotoxicity against human L02 cells assessed as inhibition of cell viability measured after 72 hrs by MTT assay; type: toxicity, cell-based
[3] = target: Proto-oncogene tyrosine-protein kinase Src (Homo sapiens) (UniProt P12931); assay: Inhibition of Src (unknown origin) by HTRF assay relative to control; settings: concentration not given here
[4] = Inhibition of ERK (unknown origin) by HTRF assay relative to control; settings: Homo sapiens; concentration not given here
[5] = tested on: HCC827; assay: Induction of apoptosis in human HCC827 cells assessed as early apoptotic cells at 10 nM measured after 24 hrs by annexin V/PI staining based flu cytometry analysis (reference value: 3.2%); type: functional
[6] = tested on: HCC827; assay: Induction of cell cycle arrest in human HCC827 cells assessed as accumulation of cells at G0/G1 phase at 10 nM measured after 24 hrs by PI staining based flow cytometry analysis (reference value: 54.36%); type: functional
[7] = tested on: Epidermal growth factor receptor (Homo sapiens), P00533 [UNDEFINED MUTATION]; settings: dose 30.0 nM
[8] = tested on: A549; assay: Antiproliferative activity against human A549 cells assessed as inhibition of cell growth measured after 72 hrs by MTT assay; type: functional, cell-based; settings: A549, 72 h
[9] = target: Epidermal growth factor receptor (Homo sapiens, UniProt P00533, L858R/T790M); assay: Inhibition of EGFR L858R/T790M (unknown origin) preincubated for 10 mins followed by substrate addition and measured after 50 mins in presence of ATP by HTRF assay
[10] = tested on: HCC827; assay: Induction of cell cycle arrest in human HCC827 cells assessed as accumulation of cells at S phase at 100 nM measured after 24 hrs by PI staining based flow cytometry analysis (reference value: 28.81%); type: functional
[11] = Toxicity in BALB/c nude mouse assessed as drug tolerability at 10 to 50 mg/kg/day, po measured every three days for 21 days; type: organism-based; settings: in vivo, 504 h, dose 10-50 mg/kg/day, time 21 day
[12] = tested on: HCC827; assay: Induction of apoptosis in human HCC827 cells assessed as necrotic cells at 10 nM measured after 24 hrs by annexin V/PI staining based flu cytometry analysis (reference value: 7.34%); type: functional
[13] = target: T1, Epidermal growth factor receptor (Homo sapiens, UniProt P00533); settings: dose 100.0 nM
Description: Inhibition of EGFR phosphorylation (unknown origin) at 100 nM by Western blotting analysis

[14] = species: Homo sapiens; assay: Inhibition of Akt (unknown origin) by HTRF assay relative to control; settings: concentration not given here
[15] = Toxicity in BALB/c nude mouse assessed as animal death at 10 to 50 mg/kg/day, po measured every three days for 21 days; type: organism-based; settings: in vivo, 504 h, dose 10-50 mg/kg/day, time 21 day
[16] = tested on: HCC827; assay: Induction of cell cycle arrest in human HCC827 cells assessed as accumulation of cells at G2/M phase at 100 nM measured after 24 hrs by PI staining based flow cytometry analysis (reference value: 16.83%); type: functional
[17] = tested on: NCI-H1975; assay: Antiproliferative activity against human NCI-H1975 cells assessed as inhibition of cell growth measured after 72 hrs by MTT assay; type: functional, cell-based; settings: NCI-H1975, 72 h
[18] = tested on: HCC827; assay: Inhibition of cell migration in human HCC827 cells at 10 to 100 nM measured upto 24 hrs by scratch-wound assay; type: functional, cell-based; settings: dose 10-100 nM
[19] = tested on: Epidermal growth factor receptor (Homo sapiens), P00533 [UNDEFINED MUTATION]; settings: dose 100.0 nM
[20] = target: T1, Epidermal growth factor receptor; assay: Inhibition of wild type EGFR (unknown origin) at 100 nM preincubated for 10 mins followed by substrate addition and measured after 50 mins in presence of ATP by HTRF assay relative to control; settings: time 60.0 min
[21] = tested on: HCC827; assay: Induction of apoptosis in human HCC827 cells assessed as late apoptotic cells at 100 nM measured after 24 hrs by annexin V/PI staining based flu cytometry analysis (reference value: 5.50%); type: functional
[22] = species: Homo sapiens; assay: Inhibition of VGFR (unknown origin) by HTRF assay relative to control; settings: concentration not given here
[23] = tested on: HCC827; assay: Induction of apoptosis in human HCC827 cells assessed as activation of cleaved-PARP level measured after 48 hrs by Western blot analysis; type: functional, cell-based; settings: dose 10-400 nM
[24] = target: Mast/stem cell growth factor receptor Kit (Homo sapiens) (UniProt P10721); assay: Inhibition of c-kit (unknown origin) by HTRF assay relative to control; settings: concentration not given here
[25] = target: RAF proto-oncogene serine/threonine-protein kinase (Homo sapiens) (UniProt P04049); assay: Inhibition of c-RAF (unknown origin) by HTRF assay relative to control; settings: concentration not given here
[26] = tested on: HCC827; assay: Antiproliferative activity against human HCC827 cells assessed as inhibition of cell growth measured after 72 hrs by MTT assay; type: functional, cell-based; settings: HCC827, 72 h
[27] = target: Tyrosine-protein kinase ABL1 (Homo sapiens) (UniProt P00519); assay: Inhibition of Abl (unknown origin) by HTRF assay relative to control; settings: concentration not given here
[28] = tested on: HCC827; assay: Induction of cell cycle arrest in human HCC827 cells assessed as accumulation of cells at G2/M phase at 10 nM measured after 24 hrs by PI staining based flow cytometry analysis (reference value: 16.83%); type: functional
[29] = tested on: HCC827; assay: Induction of apoptosis in human HCC827 cells assessed as early apoptotic cells at 100 nM measured after 24 hrs by annexin V/PI staining based flu cytometry analysis (reference value: 3.2%); type: functional
[30] = tested on: HCC827; assay: Induction of apoptosis in human HCC827 cells assessed as late apoptotic cells at 10 nM measured after 24 hrs by annexin V/PI staining based flu cytometry analysis (reference value: 5.50%); type: functional
[31] = target: Platelet-derived growth factor receptor alpha (Homo sapiens) (UniProt P16234); assay: Inhibition of PDGFR alpha (unknown origin) by HTRF assay relative to control; settings: concentration not given here
[32] = target: Epidermal growth factor receptor (Homo sapiens, UniProt P00533, C797S/EX19DEL/T790M); assay: Inhibition of EGFR Del19/T790M/C797S triple mutant (unknown origin) preincubated for 10 mins followed by substrate addition and measured after 50 mins in presence of ATP by HTRF assay
[33] = tested on: HCC827; assay: Induction of apoptosis in human HCC827 cells assessed as necrotic cells at 30 nM measured after 24 hrs by annexin V/PI staining based flu cytometry analysis (reference value: 7.34%); type: functional
[34] = tested on: HCC827; assay: Induction of cell cycle arrest in human HCC827 cells assessed as accumulation of cells at S phase at 30 nM measured after 24 hrs by PI staining based flow cytometry analysis (reference value: 28.81%); type: functional
[35] = tested on: HCC827; assay: Induction of cell cycle arrest in human HCC827 cells assessed as accumulation of cells at G0/G1 phase at 100 nM measured after 24 hrs by PI staining based flow cytometry analysis (reference value: 54.36%); type: functional

Chain of Epidermal growth factor receptor (Homo sapiens), P00533 [UNDEFINED MUTATION] (P00533 whole entry, looked up, stated change not applied): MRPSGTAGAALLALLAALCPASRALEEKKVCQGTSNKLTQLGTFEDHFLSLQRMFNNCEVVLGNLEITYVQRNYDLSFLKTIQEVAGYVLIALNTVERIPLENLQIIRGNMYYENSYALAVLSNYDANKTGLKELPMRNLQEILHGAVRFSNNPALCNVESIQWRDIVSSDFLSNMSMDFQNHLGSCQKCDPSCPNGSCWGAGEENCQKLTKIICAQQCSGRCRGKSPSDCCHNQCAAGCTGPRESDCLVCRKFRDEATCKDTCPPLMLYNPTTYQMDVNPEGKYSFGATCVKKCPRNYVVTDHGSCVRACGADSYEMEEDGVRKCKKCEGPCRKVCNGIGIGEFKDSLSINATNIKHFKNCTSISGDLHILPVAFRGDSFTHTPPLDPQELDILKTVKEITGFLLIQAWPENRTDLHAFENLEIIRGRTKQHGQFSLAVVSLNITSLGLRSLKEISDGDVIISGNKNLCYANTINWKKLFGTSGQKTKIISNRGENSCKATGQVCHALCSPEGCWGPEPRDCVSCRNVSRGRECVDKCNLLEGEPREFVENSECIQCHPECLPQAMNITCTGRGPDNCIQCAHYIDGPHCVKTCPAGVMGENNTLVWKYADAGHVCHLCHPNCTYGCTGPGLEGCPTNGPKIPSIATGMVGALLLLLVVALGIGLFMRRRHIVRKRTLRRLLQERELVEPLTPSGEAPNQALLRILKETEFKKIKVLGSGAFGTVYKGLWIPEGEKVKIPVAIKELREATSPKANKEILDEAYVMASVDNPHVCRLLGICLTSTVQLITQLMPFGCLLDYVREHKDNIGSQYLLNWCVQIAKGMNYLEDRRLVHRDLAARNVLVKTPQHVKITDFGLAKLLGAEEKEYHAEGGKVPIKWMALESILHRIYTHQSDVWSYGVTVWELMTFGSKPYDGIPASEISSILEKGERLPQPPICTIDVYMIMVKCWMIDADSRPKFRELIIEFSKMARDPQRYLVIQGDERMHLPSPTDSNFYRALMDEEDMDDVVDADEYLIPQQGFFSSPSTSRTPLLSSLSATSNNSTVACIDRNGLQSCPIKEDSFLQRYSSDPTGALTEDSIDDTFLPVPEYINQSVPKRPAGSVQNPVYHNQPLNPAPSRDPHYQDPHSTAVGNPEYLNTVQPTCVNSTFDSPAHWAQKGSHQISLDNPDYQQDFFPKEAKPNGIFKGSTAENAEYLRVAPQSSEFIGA
T1 sequence (P00533 whole entry): as the sequence (P00533 whole entry, looked up, stated change not applied) above
Chain of Proto-oncogene tyrosine-protein kinase Src (Homo sapiens) (P12931 2-536 limits assumed): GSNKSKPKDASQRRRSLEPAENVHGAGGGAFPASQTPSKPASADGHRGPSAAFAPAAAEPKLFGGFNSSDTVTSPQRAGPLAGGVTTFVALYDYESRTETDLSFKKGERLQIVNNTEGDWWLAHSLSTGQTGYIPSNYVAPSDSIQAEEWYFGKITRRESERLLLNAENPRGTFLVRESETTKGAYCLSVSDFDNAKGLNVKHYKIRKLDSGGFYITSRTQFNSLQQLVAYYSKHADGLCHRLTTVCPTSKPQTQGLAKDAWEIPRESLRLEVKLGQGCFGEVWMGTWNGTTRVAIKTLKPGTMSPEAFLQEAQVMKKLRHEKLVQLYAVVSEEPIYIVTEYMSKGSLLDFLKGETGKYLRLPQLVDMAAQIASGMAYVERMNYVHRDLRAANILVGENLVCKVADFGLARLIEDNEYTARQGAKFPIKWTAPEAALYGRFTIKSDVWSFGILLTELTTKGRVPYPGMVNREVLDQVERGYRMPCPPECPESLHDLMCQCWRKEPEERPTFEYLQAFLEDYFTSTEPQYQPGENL
Chain of Tyrosine-protein kinase ABL1 (Homo sapiens) (P00519 whole entry): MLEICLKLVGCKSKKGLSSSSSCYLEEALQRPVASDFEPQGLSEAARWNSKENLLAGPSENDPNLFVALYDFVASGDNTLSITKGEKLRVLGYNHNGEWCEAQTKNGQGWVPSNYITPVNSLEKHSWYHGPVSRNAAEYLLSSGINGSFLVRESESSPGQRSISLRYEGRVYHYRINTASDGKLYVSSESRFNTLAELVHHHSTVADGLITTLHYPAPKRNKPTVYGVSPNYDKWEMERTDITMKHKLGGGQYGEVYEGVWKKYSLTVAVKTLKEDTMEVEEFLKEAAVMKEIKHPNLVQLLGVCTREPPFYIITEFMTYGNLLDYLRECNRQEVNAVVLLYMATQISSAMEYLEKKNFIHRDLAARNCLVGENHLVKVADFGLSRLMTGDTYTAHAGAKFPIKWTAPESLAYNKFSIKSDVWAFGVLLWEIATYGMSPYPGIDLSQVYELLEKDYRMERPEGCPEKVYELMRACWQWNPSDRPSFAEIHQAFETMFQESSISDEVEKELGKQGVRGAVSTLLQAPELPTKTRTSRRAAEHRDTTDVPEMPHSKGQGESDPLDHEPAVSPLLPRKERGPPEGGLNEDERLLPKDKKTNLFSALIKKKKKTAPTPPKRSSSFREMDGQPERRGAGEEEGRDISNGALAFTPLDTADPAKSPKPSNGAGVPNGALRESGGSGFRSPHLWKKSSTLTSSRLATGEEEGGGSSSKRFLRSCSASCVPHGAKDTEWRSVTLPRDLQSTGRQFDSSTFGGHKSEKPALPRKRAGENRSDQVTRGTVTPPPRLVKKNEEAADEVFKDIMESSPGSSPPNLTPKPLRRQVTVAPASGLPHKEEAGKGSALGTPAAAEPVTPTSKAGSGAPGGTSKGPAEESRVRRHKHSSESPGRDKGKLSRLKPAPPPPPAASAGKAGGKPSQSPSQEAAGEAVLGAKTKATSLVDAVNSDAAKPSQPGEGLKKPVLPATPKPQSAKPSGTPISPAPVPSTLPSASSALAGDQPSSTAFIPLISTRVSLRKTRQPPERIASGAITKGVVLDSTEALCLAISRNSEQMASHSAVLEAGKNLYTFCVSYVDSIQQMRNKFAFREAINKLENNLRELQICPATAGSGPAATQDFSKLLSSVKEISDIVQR
Chain of Mast/stem cell growth factor receptor Kit (Homo sapiens) (P10721 whole entry): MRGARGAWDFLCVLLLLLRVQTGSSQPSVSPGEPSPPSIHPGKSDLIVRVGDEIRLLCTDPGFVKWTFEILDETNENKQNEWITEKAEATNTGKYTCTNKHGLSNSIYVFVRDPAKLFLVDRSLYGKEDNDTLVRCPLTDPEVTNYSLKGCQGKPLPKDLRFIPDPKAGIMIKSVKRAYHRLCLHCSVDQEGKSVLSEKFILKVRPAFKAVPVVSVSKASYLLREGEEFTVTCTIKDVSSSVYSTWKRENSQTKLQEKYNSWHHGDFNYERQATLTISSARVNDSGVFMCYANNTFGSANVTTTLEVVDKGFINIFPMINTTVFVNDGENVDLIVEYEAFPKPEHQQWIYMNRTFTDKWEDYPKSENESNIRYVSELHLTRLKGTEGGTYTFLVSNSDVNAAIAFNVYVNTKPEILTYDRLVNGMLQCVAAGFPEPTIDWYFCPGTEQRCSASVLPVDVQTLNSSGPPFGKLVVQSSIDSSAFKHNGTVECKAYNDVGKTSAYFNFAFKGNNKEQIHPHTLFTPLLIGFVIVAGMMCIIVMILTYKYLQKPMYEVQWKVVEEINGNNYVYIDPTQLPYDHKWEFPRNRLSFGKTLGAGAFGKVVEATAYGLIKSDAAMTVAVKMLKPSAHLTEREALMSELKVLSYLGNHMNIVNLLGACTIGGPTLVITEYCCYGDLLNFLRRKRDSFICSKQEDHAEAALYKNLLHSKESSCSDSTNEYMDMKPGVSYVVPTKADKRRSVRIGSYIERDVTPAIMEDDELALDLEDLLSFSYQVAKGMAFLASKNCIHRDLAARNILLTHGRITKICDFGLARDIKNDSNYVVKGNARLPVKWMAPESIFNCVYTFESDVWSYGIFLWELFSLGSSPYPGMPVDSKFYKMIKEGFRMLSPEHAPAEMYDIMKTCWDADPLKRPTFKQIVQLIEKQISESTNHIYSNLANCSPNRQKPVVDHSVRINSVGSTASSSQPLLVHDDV

O=C(NO)c1sccc1Nc1nc(Nc2ccc(N3CCOCC3)cc2)ncc1Cl
inhibition [1]: < 70%
IC50 at 72 h [2]: 2450 nM
inhibition [3]: < 70%
inhibition [4]: < 70%
Activity [5]: 9.96%
Activity [6]: 66.03%
inhibition [7]: 61.9%
IC50 [8]: 703 nM
IC50 [9]: 43.9 nM
Activity [10]: 9.64%
Activity [11]: Non-Toxic
Activity [12]: 6.5%
inhibition [13]: Active
inhibition [14]: < 70%
Activity [15]: Non-Toxic
Activity [16]: 46.13%
IC50 [17]: 168 nM
inhibition [18]: Active
inhibition [19]: 88.6%
inhibition [20]: 99.5%
Activity [21]: 14.3%
inhibition [22]: < 70%
Activity [23]: Dose-Dependent Effect
inhibition [24]: < 70%
inhibition [25]: < 70%
IC50 [26]: 25 nM
inhibition [27]: < 70%
Activity [28]: 17.56%
Activity [29]: 3.41%
Activity [30]: 6.53%
inhibition [31]: < 70%
IC50 [32]: 16.1 nM
Activity [33]: 7.64%
Activity [34]: 12.31%
Activity [35]: 44.23%
